Consider 30 compounds from patent US11078192B2, “Aromatic acetylene or aromatic ethylene compound, intermediate, preparation method, pharmaceutical composition and use thereof” (GUANGZHOU MAXINOVEL PHARMACEUTICALS CO., LTD., priority 2016, dated 2021).

pIC50: −log10 of the molar value.

For this test, the target named is PD-1/PD-L1 (Homo sapiens (Human), UniProt Q9NZQ7). Nature of the test: Homogeneous Time-Resolved Fluorescence (HTRF) binding assay. The note with it: CisBio kit #64CUS000C-1, read-out: IC50 of compounds binding to PD-1/PD-L1. As for the experimental part: Homogeneous Time-Resolved Fluorescence (HTRF) binding assay was used to determine the binding activity of the compound of the present invention to PD-1/PD-L1.
PD-1/PD-L1, sequence (Q9NZQ7 19-238): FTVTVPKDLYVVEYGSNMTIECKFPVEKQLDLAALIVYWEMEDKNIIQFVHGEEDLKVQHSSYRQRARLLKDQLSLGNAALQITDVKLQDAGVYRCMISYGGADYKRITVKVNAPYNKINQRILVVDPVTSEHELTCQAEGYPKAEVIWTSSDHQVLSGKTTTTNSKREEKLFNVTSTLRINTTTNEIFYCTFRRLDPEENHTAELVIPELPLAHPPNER
The purchased kit (CisBio, #64CUS000C-1) contained reagents required for assays such as PD-1, PD-L1, anti-tag1-Eu, Anti-tag2-XL665, Dilute Buffer, and Detection Buffer.
1. The compound was formulated to 10 concentrations with a 3-fold gradient with 100% DMSO.
2. The solution of the compound in DMSO was added to Dilute Buffer, mixed thoroughly, then transferred to a 96-well plate.
3. PD-L1 was diluted with Dilute Buffer, then added to the above 96-well plate.
4. PD-1 was diluted with Dilute Buffer and added to the above 96-well plate, which was then incubated at room temperature for 30 minutes.
5. A portion of anti-tag1-Eu and a portion of anti-tag2-XL665 were added to Detection Buffer, mixed thoroughly and transferred to the above 96-well plate.
6. The mixture in the above 96-well plate was incubated at room temperature for 1 to 24 hours.
7. HTRF values were read with Envision.
In general terms: TR-FRET usually uses a lanthanide donor and a delayed reading to cut background.
Consider `COc1nc(/C=C/c2cccc(-c3ccccc3)c2C)ccc1CNCCNC(C)=O` [Compound 39, (E)-N-(2-(((2-methoxy-6-(2-(2-methylbiphenyl)vinyl)pyridin-3-yl)methyl)amino)ethyl)acetamide], for which the pIC50 was 6.77.
Turning to `Cc1c(/C=C/c2ccc(CNCCO)cn2)cccc1-c1ccc2c(c1)OCCO2` [Compound 17, (E)-2-((6-(3-(2,3-Dihydrobenzo[b][1,4]dioxin-6-yl)-2-methylstyryl)pyridin-3-yl)methylamino)ethanol], the pIC50 is 6.51.
`COc1ccc(-c2cccc(/C=C/c3cc(OC)c(CN[C@@H](CO)C(=O)O)c(OC)c3)c2C)cc1` [Compound 48, (S,E)-2-(2,6-Dimethoxy-4-(2-(4′-methoxy-2-methylbiphenyl-3-yl)vinyl)benzylamino)-3-hydroxypropionic Acid]: the pIC50 was less than 5.00.
Then `COc1cc(N2C=CCN2c2cccc(-c3ccccc3)c2C)cc(OC)c1CNC(CO)C(=O)O` (stereo not drawn) [Compound 60, 2-(2,6-Dimethoxy-4-(2-(2-methylbiphenyl-3-yl)-1H-pyrazol-1-yl)benzylamino)-3-hydroxypropanoic Acid], with less than 5.00; and `Cc1cc(CN2CCCC(O)C2C(=O)O)ccc1C#Cc1cccc(-c2ccccc2)c1C` (stereo not drawn) [Compound 28, 1-(3-Methyl-4-((2-methylbiphenyl-3-yl)ethynyl)benzyl)-3-hydroxypiperidin-2-carboxylic Acid], with 5.67; and `COc1cc(/C=C/c2cccc(-c3ccccc3)c2C)cc(OC)c1CN1CCC[C@H]1CO` [Compound 3, (S,E)-(1-(2,6-Dimethoxy-4-((2-methylbiphenyl-3-yl)vinyl)benzyl)pyrrolidin-2-yl)methanol], with 5.57.
In the case of `COc1cc(/C=C/c2cccc(-c3ccccc3)c2C)cc(OC)c1CN[C@](C)(CO)C(=O)O` [Compound 46, (R,E)-2-(2,6-Dimethoxy-4-(2-(2-methylbiphenyl-3-yl)vinyl)benzylamino)-3-hydroxy-2-methylpropanoic Acid], the pIC50 is 7.32.
The figure for `Cc1ccc(CN[C@H](CO)C(=O)O)cc1/C=C/c1cccc(-c2ccccc2)c1C` [Compound 36, (R,E)-2-(4-Methyl-3-(2-(2-methylbiphenyl-3-yl)vinyl)benzylamino)-3-hydroxypropionic Acid] is 7.00.
The figure for `Cc1cc(CN2CCCC(O)C2C(=O)O)ccc1/C=C/c1cccc(-c2ccccc2)c1C` (stereo not drawn) [Compound 19, (E)-3-Hydroxy-1-(3-methyl-4-(2-(2-methylbiphenyl-3-yl)vinyl)benzyl)piperidin-2-carboxylic Acid] is 6.48; for `Cc1cc(CN[C@H](C)C(=O)O)ccc1/C=C/c1cccc(-c2ccccc2)c1C` [Compound 13, (R,E)-2-(3-Methyl-4-(2-(2-methylbiphenyl-3-yl)vinyl)benzylamino)propanoic Acid] it is 6.62.
On to `COc1cc(/C=C/c2cccc(-c3cnn(C)c3)c2C)cc(OC)c1CN[C@@H](CO)C(=O)O` [Compound 61], for which the pIC50 was less than 5.00.
Then `COc1cc(/C=C/c2cncc(-c3ccccc3)c2C)cc(OC)c1CNC(C)(CO)C(=O)O` (stereo not drawn) [Compound 65, (E)-2-(2,6-Dimethoxy-4-(2-(4-methyl-5-phenylpyridin-3-yl)vinyl)benzylamino)-3-hydroxy-2-methylpropionic Acid], with 5.70.
The figure for `Cc1c(/C=C/c2ccc(CNC(CO)CO)cc2Cl)cccc1-c1ccccc1` [Compound 32, (E)-2-(3-Chloro-4-(2-(2-methylbiphenyl-3-yl)vinyl)benzylamino)-1,3-propanediol] is 6.60.
Then `COC(=O)C1C(O)CCCN1Cc1ccc(/C=C/c2cccc(-c3ccccc3)c2C)c(Cl)c1` (stereo not drawn) [Compound 20, (E)-Methyl 1-(3-chloro-4-(2-(2-methylbiphenyl-3-yl)vinyl)benzyl)-3-hydroxypiperidin-2-carboxylate], with less than 5.00; and `COc1cc(/C=C/c2cccc(-c3ccc4c(c3)OCCO4)c2C)cc(OC)c1CNC(C)(CO)C(=O)O` (stereo not drawn) [Compound 57, (E)-2-(4-(3-(2,3-Dihydrobenzo[b][1,4]dioxin-6-yl)-2-methylstyryl)-2,6-dimethoxybenzylamino)-3-hydroxy-2-methylpropanoic Acid], with 7.15; and `COc1cc(/C=C/c2cccc(-c3ccccc3)c2C)cc(OC)c1CN[C@@](C)(CO)C(=O)O` [Compound 45, (S,E)-2-(2,6-Dimethoxy-4-(2-(2-methylbiphenyl-3-yl)vinyl)benzylamino)-3-hydroxy-2-methylpropanoic Acid], with 7.31.
Turning to `COc1cc(/C=C/c2cccc(-c3ccccc3)c2C)cc(OC)c1CNC(CO)CO` [Compound 5, (E)-2-((2,6-Dimethoxy-4-(2-(2-methylbiphenyl-3-yl)vinyl)benzyl)amino)propane-1,3-diol], the pIC50 is 7.22.
With `COc1ccc(-c2cccc(/C=C/c3cc(OC)c(CNc4cccc(O)c4C(=O)O)c(OC)c3)c2C)cc1` [Compound 54, (E)-2-(2,6-Dimethoxy-4-(2-(4′-methoxy-2-methylbiphenyl-3-yl)vinyl)benzylamino)-6-hydroxybenzoic Acid], the pIC50 is less than 5.00.
Then `Cc1cc(CN2CCC[C@H](O)[C@@H]2C(N)=O)ccc1/C=C/c1cccc(-c2ccccc2)c1C` [Compound 26, (2R,3S,E)-3-Hydroxy-1-(3-methyl-4-(2-(2-methylbiphenyl-3-yl)vinyl)benzyl)piperidin-2-carboxamide], with 5.89.
Then `COc1cc(/C=C/c2cccc(-c3ccccc3)c2C)cc(OC)c1CNc1ccc(C(=O)O)c(O)c1` [Compound 58, (E)-4-(2,6-Dimethoxy-4-(2-(2-methylbiphenyl-3-yl)vinyl)benzylamino)-2-hydroxybenzoic Acid], with less than 5.00.
The figure for “(S,E)-2-(3-Chloro-4-(2-(2-methylbiphenyl-3-yl)vinyl)benzylamino)-3-hydroxypropanamide [Compound 33]” is 6.32; for `COc1cc(/C=C/c2cccc(-c3ccccc3)c2C#N)cc(OC)c1CN1CCC[C@H]1CO` [Compound 14, (S,E)-3-(4-((2-Hydroxymethylpyrrolidin-1-yl)methyl)-3,5-dimethoxystyryl)biphenyl-2-carbonitrile] it is 6.41; for `COc1cc(C#Cc2cccc(-c3ccccc3)c2C)cc(OC)c1CN1CCC[C@H]1CO` [Compound 2, (S)-(1-(2,6-Dimethoxy-4-((2-methyl-biphenyl-3-yl)ethynyl)benzyl)pyrrolidin-2-yl)methanol] it is 5.87.
As for `Cc1c(/C=C/c2ccc(CN3CCC[C@H]3CO)cc2Cl)cccc1-c1ccccc1` [Compound 11, (S,E)-(1-(3-Chloro-4-(2-(2-methylbiphenyl-3-yl)vinyl)benzyl)pyrrolidin-2-yl)methanol], the pIC50 is 6.34.
The figure for `Cc1c(/C=C/c2ccc(CN3CCCC(O)C3C(N)=O)cc2F)cccc1-c1ccccc1` (stereo not drawn) [Compound 24, (E)-1-(3-Fluoro-4-(2-(2-methylbiphenyl-3-yl)vinyl)benzyl)-3-hydroxypiperidin-2-carboxamide] is less than 5.00; for `COc1cc(/C=C/c2cncc(-c3ccc4c(c3)OCCO4)c2C)cc(OC)c1CN[C@@H](CO)C(=O)O` [Compound 64, (S,E)-2-(4-(2-(5-(2,3-Dihydrobenzo[b][1,4]dioxin-6-yl)-4-methylpyridin-3-yl)vinyl)-2,6-dimethoxybenzylamino)-3-hydroxypropanoic Acid] it is 5.38; for `COc1cc(/C=C/c2cccc(-c3ccc(C(N)=O)cc3)c2C)cc(OC)c1CNc1cccc(O)c1C(=O)O` [Compound 55, (E)-2-(2,6-Dimethoxy-4-(2-(4′-carbamoyl-2-methylbiphenyl-3-yl)vinyl)benzylamino)-6-hydroxy-benzoic Acid] it is 5.35.
For the compound `COc1cc(/C=C/c2cccc(-c3ccccc3)c2C)cc(OC)c1CNCC(=O)O` [Compound 37, (E)-2-(2,6-Dimethoxy-4-(2-(2-methylbiphenyl-3-yl)vinyl)benzylamino)acetic Acid], the pIC50 was 7.00.
The figure for `COc1cc(/C=C/c2cccc(-c3ccccc3)c2C)cc(OC)c1CNC(CCO)C(=O)O` (stereo not drawn) [Compound 43, (E)-2-(2,6-Dimethoxy-4-(2-(2-methylbiphenyl-3-yl)vinyl)benzylamino)-4-hydroxybutanoic Acid] is 6.89; for `Cc1c(/C=C/c2cc(CN3CCC[C@H]3CO)ccc2C(F)(F)F)cccc1-c1ccc2c(c1)OCCO2` [Compound 67, (S,E)-(1-(3-(3-(2,3-Dihydrobenzo[b][1,4]dioxin-6-yl)-2-methylstyryl)-4-(trifluoromethyl)benzyl)pyrrolidin-2-yl)methanol] it is 5.62.
